Tests used:
[1] = cited from earlier work
[2] = tested on: rats subjected to middle cerebral artery occlusion (MCAo); assay: Adhesive Removal Test after MCAo, combination study; type: in vivo, rat; conditions: treatment 1 day after stroke; NN 0.4 mg/kg IP, hMSCs 1×10^6 cells iv; vs control
Procedure: (§1) Male Wistar rats (n=32) were subjected to middle cerebral artery occlusion (MCAo) and were randomized with 8 rats in four treatment groups, with treatment initiated 1 day after stroke. Groups included: 1) phosphate buffered saline (PBS); 2) subtherapeutic DETA-NONOate (NN) at a dose of 0.4 mg/kg (IP); 3) subtherapeutic hMSCs (1×10^6 cells-iv); and 4) combination subtherapeutic NN and hMSCs. Functional outcome measurements consisted of a Neurologic Severity Scale (18 point scale) (NSS) and the Adhesive Removal Test performed prior to stroke, immediately before treatment and at 7 and 14 days after treatment. […] However, there was an overall hMSC effect on NSS at 14 days.

[3] = tested on: rats subjected to middle cerebral artery occlusion (MCAo); assay: Neurologic Severity Scale (NSS) after MCAo, combination study; type: in vivo, rat; conditions: treatment 1 day after stroke; NN 0.4 mg/kg IP, hMSCs 1×10^6 cells iv; vs control (PBS)
Procedure: as §1

[4] = tested on: rats subjected to middle cerebral artery occlusion (MCAo); assay: Volume of cerebral infarction after MCAo, combination study; type: in vivo, rat; conditions: treatment 1 day after MCAo; NN 0.4 mg/kg IP, hMSCs 1×10^6 cells iv; no significant reduction vs PBS
Procedure: as §1
No significant reduction of volume of ischemic damage was detected in rats with hMSC (30.7±6.2%) or NONOate ([…]) and combination hMSCs with NONOate (28.7±6.7%) treatment, compared with control rats subjected to MCAo with PBS ([…]), hMSCs were identified immunohistochemically using an antibody specific for human chromosomes (MAB1281). Within the brain tissue, cells derived from hMSCs were characterized by MAB1281 staining. No MAB1281 positive cells were found in the non-hMSCs treated rats. MSCs identified by MAB1281 survived and were distributed throughout the damaged brain of recipient rats. […] The vast majority of MAB1281 positive hMSCs were located in the ischemic boundary zone.

[5] = tested on: BrdU positive cells in the subventricular zone; assay: BrdU positive cells in ipsilateral subventricular zone, combination study; type: in vivo, rat; conditions: treatment 1 day after MCAo; NN 0.4 mg/kg IP, hMSCs 1×10^6 cells iv; PBS control 29.8±8.8
Procedure: as §1
BrdU (50 mg/kg-ip) was injected daily for 14 days after treatment in all groups. BrdU is a thymidine analog that labels newly formed DNA and thereby identifies newly formed cells. […] BrdU found in the cytoplasm of macrophage-like cells were not counted. […] The percentage of BrdU reactive cells that express NeuN and GFAP proteins was approximately, 3%, 3% and 6%, respectively.

[6] = tested on: BrdU immunoreactive cells in dentate gyrus, SVZ and OB; assay: Cell proliferation (BrdU) in non-ischemic young adult rats; type: in vivo, rat
Procedure: The effects of an NO donor administered to normal young adult rats on the induction of cell proliferation within three regions of brain, the dentate gyrus, the olfactory bulb (OB) and the subventricular zone (SVZ) were tested. […] Young male Wister rats (3-4 month old) received 4 consecutive). I.V bolus doses of DETA/NONOate (0.1 mg/kg each, every 15 min, and total dose of 0.4 mg/kg) on the first experimental day and DETA/NONOate (0.4 mg/kg) was administered (i.p) daily for an additional 6 consecutive days. Rats that received saline were used as a control group. Bromodeoxyuridine (BrdU) was used as mitotic labeling to measure cell proliferation. Animals received daily i.p injections of BrdU (50 mg/kg, Sigma) on the first experimental day and subsequently for 14 consecutive days. Rats were sacrificed at 14 and 42 days after the treatment. BrdU immunoreactive nuclei were counted on a computer monitor to improve visualization and in one focal plane to avoid over-sampling. Structures were sampled either by selecting predetermined areas on each section (OB) or by analyzing entire structures on each section (SVZ and dentate gyrus) (Zhang et al., 2001). All BrdU immunoreactive-positive nuclei in these areas are presented as the number of the BrdU immunoreactive cells/mm^2. Density for the selected several sections was averaged to obtain a mean density value for each animal (Zhang et al., 2001).

[7] = tested on: cerebral vessels in the ischemic penumbra; assay: Angiogenesis after MCAo, combination study (BrdU endothelial cells, three-dimensional vessel analysis); type: in vivo, rat; conditions: vs control MCAo group
Procedure: as §1
Enlarged and thin walled vessels are termed “mother” vessels and have been found under conditions of cerebral ischemic angiogenesis.
FIGS. 11B and C are computer generated three-dimensional images derived from the original images. Different colors in FIG. 11B represent individual vessels, which were not connected to each other. Green and red colors in FIG. 11C code for diameter of blood vessels less then 7.5 μm (red) and larger then 7.5 μm (green), respectively. […] Enlarged vessels can develop into capillaries after ischemia.

[8] = tested on: brain-derived endothelial cells; assay: Endothelial tube formation, total tube length; type: cell-based; conditions: vs control medium DMEM 1.4 (0.1); p<0.01
Source text: The enhance induction of angiogenesis is also evident from in vitro studies of tubule formation in brain derived endothelial cells. […] The endothelial cells formed a network of capillary-like structures with numerous intercellular contacts.

| SMILES | half-life in rats [1] [min] | Adhesive-Removal test score at 14 days [2] | NSS at 14 days [3] | volume of ischemic damage [4] [%] | BrdU positive cells in the ipsilateral hemisphere subventricular zone [5] | numbers of BrdU reactive cells within the dentate gyrus, SVZ and OB ([6]; non-ischemic young adult rats (3-4 month old), DETA/NONOate 0.4 mg/kg daily 7 days, 14 and 42 days, vs saline) | newly generated cells within the dentate gyrus exhibiting neuronal markers NeuN and MAP2 ([6]; non-ischemic young adult rats administered DETA/NONO-ate) | BrdU immunoreactive endothelial cells in enlarged vessels, ipsilateral hemisphere [7] | Total tube length [8] [mm/mm^2] |
| --- | --- | --- | --- | --- | --- | --- | --- | --- | --- |
| CCCc1nn(C)c2c(=O)[nH]c(-c3cc(S(=O)(=O)N4CCN(C)CC4)ccc3OCC)nc12 [Sildenafil] | 24 |  |  |  |  |  |  |  |  |
| NCCN(CCN)/[N+]([O-])=N/O [DETANONOate, (Z)-1-[N-(2-aminoethyl)-N-(2-ammonioethyl)aminio]diazen-1-ium-1,2-diolate] |  | no significant improvement | No significant difference | 32.2±62 | 43.6±10.0 /section | Statistically significant increased | More than 95% | significant (p<0.05) increase | 4.6±0.6 |
